Legend:
Assay type in all cases: cell-based
Aβ42 [1] = experiment: Screening for γ-secretase-modulating activity, Method 1: Aβ42 sandwich ELISA on SKNBE2 cell media; details: SKNBE2 cells carrying APP 695 wild type
Procedure, shortened: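 SKNBE2 cells expressing wild-type APP695 were treated with compound for 18 h in Ultraculture/1% glutamine. Secreted Aβ42 was quantified by sandwich ELISA (C-terminal capture, biotinylated 3D6, TMB, 450 nm), with WST-1 used as a toxicity check. IC50 was derived from 4-parameter fits of % inhibition or % of untreated control.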

Aβtotal [2] = experiment: Screening for γ-secretase-modulating activity, Method 1: Aβtotal sandwich ELISA on SKNBE2 cell media; details: SKNBE2 cells carrying APP 695 wild type
Method: (§1) Screening was carried out using SKNBE2 cells carrying the APP 695—wild type, grown in Dulbecco's Modified Eagle's Medium/Nutrient mixture F-12 (DMEM/NUT-mix F-12) (HAM) provided by Gibco (cat no. 31330-38) containing 5% Serum/Fe supplemented with 1% non-essential amino acids. Cells were grown to near confluency.
The screening was performed using the assay as described in Citron et al (1997) Nature Medicine 3: 67. Briefly, cells were plated in a 96-well plate at about 10^5 cells/ml one day prior to addition of compounds. Compounds were added to the cells in Ultraculture (Lonza, BE12-725F) supplemented with 1% glutamine (Invitrogen, 25030-024) for 18 hours. The media were assayed by two sandwich ELISAs, for Aβ42 and Aβtotal. Toxicity of the compounds was assayed by WST-1 cell proliferation reagent (Roche, 1 644 807) according to the manufacturer's protocol.
To quantify the amount of Aβtotal in the cell supernatant, samples and standards were added to a 6E10-coated plate. The plate was allowed to incubate overnight at 4° C. in order to allow formation of the antibody-amyloid complex. Following this incubation and subsequent wash steps a selective anti-Aβ-antibody conjugate (biotinylated 4G8) was added and incubated for a minimum of 1 hour in order to allow formation of the antibody-Amyloid-antibody-complex. After incubation and appropriate wash steps, a Streptavidine-Peroxidase-Conjugate was added, followed 30 minutes later by an addition of Quanta Blu fluorogenic peroxidase substrate according to the manufacturer's instructions (Pierce Corp., Rockford, Ill.).
To obtain the values reported in Table 3a, the sigmoidal dose response curves were analysed by computerised curve-fitting, with percent of inhibition plotted against compound concentration. A 4-parameter equation (model 205) in XLfit was used to determine the IC50. The top and the bottom of the curve were fixed to 100 and 0, respectively, and the hill slope was fixed to 1. The IC50 represents the concentration of a compound that is required for inhibiting a biological effect by 50% (Here, it is the concentration where Aβ peptide level is reduced by 50%).
(§2) To obtain the values reported in Table 3b, the data were calculated as percentage of the maximum amount of amyloid Beta 42 measured in the absence of the test compound. The sigmoidal dose response curves were analyzed using non-linear regression analysis with percentage of the control plotted against the log concentration of the compound. A 4-parameter equation was used to determine the IC50. The values reported in Table 3b are averaged IC50 values.

Aβtotal [3] = experiment: Screening for γ-secretase-modulating activity, Method 2: Aβtotal Alphalisa on SKNBE2 cell supernatant; details: Method 2, Table 3c, SKNBE2 cells carrying APP 695 wild type, overnight incubation
Method: as §1, with “Invitrogen” for “Gibco”, “10371-029)” for “31330-38)”, “acids, 1-glutamine 2 mM, Hepes 15 mM, penicillin 50 U/ml (units/ml) en streptomycin 50 μg/ml.” for “acids.”
(§3) The screening was performed using a modification of the assay as described in Citron et al (1997) Nature Medicine 3: 67. Briefly, cells were plated in a 384-well plate at 10^4 cells/well in Ultraculture (Lonza, BE12-725F) supplemented with 1% glutamine (Invitrogen, 25030-024), 1% non-essential amino acid (NEAA), penicillin 50 U/ml en streptomycin 50 μg/ml in the presence of test compound at different test concentrations. The cell/compound mixture was incubated overnight at 37° C., 5% CO2. The next day the media were assayed by two sandwich immuno-assays, for Aβ42 and Aβtotal.
(§4) Aβtotal and Aβ42 concentrations were quantified in the cell supernatant using the Aphalisa technology (Perkin Elmer). Alphalisa is a sandwich assay using biotinylated antibody attached to streptavidin coated donorbeads and antibody conjugated to acceptor beads. In the presence of antigen, the beads come into close proximity. The excitation of the donor beads provokes the release of singlet oxygen molecules that trigger a cascade of energy transfer in the acceptor beads, resulting in light emission. To quantify the amount of Aβ42 in the cell supernatant, monoclonal antibody specific to the C-terminus of Aβ42 (JRF/cAβ42/26) was coupled to the receptor beads and biotinylated antibody specific to the N-terminus of Aβ (JRF/AβN/25) was used to react with the donor beads. To quantify the amount of Aβtotal in the cell supernatant, monoclonal antibody specific to the N-terminus of Aβ (JRF/AβN/25) was coupled to the receptor beads and biotinylated antibody specific to the mid region of Aβ (biotinylated 4G8) was used to react with the donor beads.
as §2, with “3c,” for “3b,”, “IC50.” for “IC50. The values reported in Table 3b are averaged IC50 values.”

Aβ42 [4] = experiment: Screening for γ-secretase-modulating activity, Method 2: Aβ42 Alphalisa on SKNBE2 cell supernatant; details: Method 2, Table 3c, SKNBE2 cells carrying APP 695 wild type, overnight incubation
Method: as §1, with “Invitrogen” for “Gibco”, “10371-029)” for “31330-38)”, “acids, 1-glutamine 2 mM, Hepes 15 mM, penicillin 50 U/ml (units/ml) en streptomycin 50 μg/ml.” for “acids.”
as §3, §4
as §2, with “3c,” for “3b,”, “IC50.” for “IC50. The values reported in Table 3b are averaged IC50 values.”

[5] = Homo sapiens, Table 3a, 18 hours, XLfit, top/bottom fixed to 100 and 0, hill slope 1
[6] = Homo sapiens, Table 3b, non-linear regression of % of control, averaged IC50 values
[7] = Table 3a, 18 hours, XLfit, top/bottom fixed to 100 and 0, hill slope 1
[8] = Table 3b, non-linear regression of % of control, averaged IC50 values

SMILES | IC50 (Aβ42 [1]; [5]) | IC50 (Aβ42 [1]; [6]) | IC50 (Aβtotal [2]; [5]) | IC50 (Aβtotal [2]; [6]) | IC50 (Aβtotal [3]; Homo sapiens) | IC50 (Aβ42 [4]; Homo sapiens) | IC50 (Aβ42 [1]; [7]) | IC50 (Aβ42 [1]; [8]) | IC50 (Aβtotal [2]; [7]) | IC50 (Aβtotal [2]; [8]) | IC50 (Aβtotal [3]) | IC50 (Aβ42 [4])
COc1cc(Nc2cccc3c2nc(-c2ccc(F)cc2)n3C(C)C)ccc1-n1cnc(C)c1 [Compound 2] | 12 nM | 12 nM | > 1000 nM | > 1000 nM | 9330 nM | 9 nM | – | – | – | – | – | –
COc1cc(Nc2cccc3c2nc(CC2CCNCC2)n3C)ccc1-n1cnc(C)c1 [Compound 9] | 600 nM | 603 nM | > 3000 nM | > 3000 nM | > 3000 nM | > 3000 nM | – | – | – | – | – | –
Cc1ncn(-c2ccc(Nc3cccc4c3nc(C)n4C(C)C)cc2)n1 [Compound 20] | – | – | – | – | – | – | > 3000 nM | > 3000 nM | > 3000 nM | > 3000 nM | > 3000 nM | > 3000 nM
COc1cc(Nc2cccc3c2nc(C)n3Cc2ccccc2)ccc1-n1cnc(C)c1 [Compound 22] | – | – | – | – | – | – | < 110 nM | < 110 nM | > 3000 nM | > 3000 nM | > 10000 nM | 151 nM
Cc1ncn(-c2ccc(Nc3cccc4c3nc(C)n4Cc3ccccc3)cc2)n1 [Compound 23] | – | – | – | – | – | – | 1910 nM | 1860 nM | > 10000 nM | > 10000 nM | > 3000 nM | > 3000 nM
COc1cc(Nc2cccc3c2nc(SCC(C)C)n3C)ccc1-n1cnc(C)c1 [Compound 33] | – | – | – | – | – | – | < 110 nM | < 110 nM | > 3000 nM | > 3000 nM | > 10000 nM | 245 nM
CCn1c(CCC(F)(F)F)nc2c(Nc3ccc(-n4cnc(C)c4)c(OC)c3)cccc21 [Compound 35] | – | – | – | – | – | – | 24 nM | 22 nM | > 1000 nM | > 10000 nM | > 10000 nM | 60 nM
COc1cc(Nc2cccc3oc(C4CCN(C)CC4)nc23)ccc1-n1cnc(C)c1 [Compound 40] | – | – | – | – | – | – | 1950 nM | 1950 nM | > 3000 nM | > 3000 nM | > 3000 nM | > 3000 nM
COc1cc(Nc2cccc3oc(C4CCN(C(C)=O)CC4)nc23)ccc1-n1cnc(C)c1 [Compound 41] | – | – | – | – | – | – | > 3000 nM | > 3000 nM | > 3000 nM | > 3000 nM | > 10000 nM | 7590 nM
COc1cccc(-c2nc3c(Nc4ccc(-n5cnc(C)c5)c(OC)c4)cccc3n2C)c1 [Compound 49] | – | – | – | – | – | – | 20 nM | 28 nM | > 1000 nM | > 3000 nM | > 10000 nM | 13 nM
COc1cccc(-c2nc3c(Nc4ccc(-n5cnc(C)n5)cc4)cccc3n2C(C)C)c1 [Compound 51] | – | – | – | – | – | – | 53 nM | 58 nM | > 3000 nM | > 3000 nM | > 10000 nM | 79 nM
CCOc1cc(C)c(-c2nc3c(Nc4ccc(-n5cnc(C)n5)c(OC)c4)cccc3o2)cc1C(C)C [Compound 59] | – | – | – | – | – | – | 7300 nM | 7760 nM | 26400 nM | > 30000 nM | > 3000 nM | > 3000 nM
COc1cc(Nc2cccc3c2nc(-c2ccccc2F)n3C)ccc1-n1cnc(C)c1 [Compound 66] | – | – | – | – | – | – | 27 nM | 24 nM | > 3000 nM | > 3000 nM | > 10000 nM | 21 nM
Cc1cn(-c2ccc(Nc3cccc4c3nc(-c3ccc(F)cc3)n4C)cn2)cn1 [Compound 68] | – | – | – | – | – | – | 27 nM | 26 nM | > 1000 nM | > 1000 nM | > 10000 nM | 35 nM
COc1cc(Nc2cccc3c2nc(-c2ccc(F)cc2)n3C(C)(C)C)ccc1-n1cnc(C)n1 [Compound 78] | – | – | – | – | – | – | < 110 nM | < 110 nM | > 3000 nM | > 3000 nM | > 10000 nM | 100 nM
COc1cc(Nc2cccc3oc(-c4cccnc4)nc23)ccc1-n1cnc(C)c1 [Compound 86] | – | – | – | – | – | – | > 3000 nM | > 3000 nM | > 3000 nM | > 3000 nM | > 10000 nM | > 10000 nM
Cc1ncn(-c2ccc(Nc3cccc4oc(CC(C)C)nc34)nc2)n1 [Compound 87] | – | – | – | – | – | – | > 3000 nM | > 3000 nM | > 3000 nM | – | > 10000 nM | > 10000 nM
Cc1ncn(-c2ccc(Nc3cccc4c3nc(-c3ccc(F)cc3)n4C(C)C)nc2)n1 [Compound 89] | – | – | – | – | – | – | 326 nM | 324 nM | > 3000 nM | > 3000 nM | > 10000 nM | 575 nM
Cc1ncn(-c2c(F)cc(Nc3cccc4c3nc(-c3ccc(F)cc3)n4C)cc2F)n1 [Compound 102] | – | – | – | – | – | – | 839 nM | 871 nM | > 3000 nM | > 3000 nM | 8130 nM | 1290 nM
Cc1ncn(-c2ccc(Nc3cccc4c3nc(-c3ccc(F)cc3)n4C)cc2)n1 [Compound 103] | – | – | – | – | – | – | 87 nM | 89 nM | – | – | > 10000 nM | 102 nM
COc1nc(Nc2cccc3c2nc(-c2ccc(F)cc2)n3C(C)C)ccc1-n1cnc(C)c1 [Compound 116] | – | – | – | – | – | – | – | 10 nM | – | – | 6610 nM | 4 nM
COc1cc(Nc2cccc3c2nc(-c2ccc(C(F)(F)F)nc2)n3C(C)C)ccc1-n1cnc(C)c1 [Compound 117] | – | – | – | – | – | – | – | 33 nM | – | > 3000 nM | > 10000 nM | 28 nM
COc1cc(Nc2cccc3c2nc(C2CCOCC2)n3C(C)C)ccc1-n1cnc(C)n1 [Compound 120] | – | – | – | – | – | – | – | > 3000 nM | – | – | > 10000 nM | 9770 nM
COc1cc(Nc2cccc3c2nc(-c2ccc(Cl)s2)n3C(C)C)ccc1-n1cnc(C)n1 [Compound 121] | – | – | – | – | – | – | – | 20 nM | – | > 3000 nM | > 10000 nM | 34 nM
Cc1ncn(-c2ccc(Nc3nccc4c3nc(-c3ccc(F)cc3F)n4C)c(F)c2)n1 [Compound 129] | – | – | – | – | – | – | – | > 3000 nM | – | – | > 10000 nM | > 10000 nM
Cc1cn(-c2ccc(Nc3nccc4c3nc(-c3ccc(F)cc3)n4C)cc2F)cn1 [Compound 137] | – | – | – | – | – | – | – | 50 nM | – | > 3000 nM | > 10000 nM | 21 nM
COc1nc(Nc2nc(C)cc3c2nc(-c2ccccc2Cl)n3C)ccc1-n1cnc(C)c1 [Compound 149] | – | – | – | – | – | – | – | 316 nM | – | > 10000 nM | 9770 nM | 195 nM
